Reference: patent US6384187B1, “Antiproliferative activity of microsclerodermins” (Harbor Branch Oceanographic Institution, Inc., priority 1999, dated 2002)

System: A549 human lung adenocarcinoma cells
Test: Immunofluorescent detection of effects on the microtubule matrix (anti-alpha-tubulin)
Assay type: cell-based
Method: Microsclerodermin compounds were evaluated as to their effects on the microtubule network of A549 human lung adenocarcinoma cells using anti-alpha-tubulin monoclonal antibodies. […] Tests were conducted to determine if the microsclerodermin compounds acted upon the cellular microtubule network in a similar fashion.
On day 1, 7.0×10^4 adherent A549 cells were cultured in TCM overnight at 37° C. in 5% CO2 on 22 mm2 coverslipsin 6-well microtiter plates. On day 2, the TCM was removed and replaced with various concentrations of the microsclerodermin compounds, or discodermolide,in TCM or TCM without drug (control) and incubated for 24 hours at 37° C. in 5% CO2. On day 3, the TCM was removed and the adhered cells were fixed in 3.7% formaldehyde solution in Dulbecco's phosphate-buffered saline (D-PBS) for 10 minutes at room temperature. The cells were then permeabilized in a 2% Triton X-100 solution in D-PBS, 2 ml per well, for 5 minutes at room temperature and washed twice in D-PBS prior to staining.
To each well containing cells attached to coverslips a 2 ml volume of mouse monoclonal anti-alpha-tubulin(Cat#T-5168, Sigma Immuno Chemicals) diluted 1:1000 in D-PBS was added and the cells incubated at room temperature for 45 minutes. The coverslips were rinsed twice with D-PBS. A 2 ml volume of goat-anti-mouse-IgG-FITC conjugate (Cat#T-5262, Sigma Immuno Chemicals) diluted at 1:1000 in D-PBS was added and the cells incubated at room temperature for 45 minutes. Coverslips were rinsed twice in D-PBS and incubated for 30 minutes at 37° C. with 1 ml/well of propidium iodide ([…]) and ribonuclease A ([…]) in D-PBS. The cover slips were rinsed three times with sterile distilled water, mounted on slides, and observed under the microscope using epifluorescence illumination for the presence of abnormal aster and microtubule bundle formation.

[1] = treated cells, concentration not given, reference agents

Row | Compound | abnormal aster and microtubule bundle formation [1] | abnormal aster and microtubule bundle formation (A549 cells, 5 μg/ml, 24 hours) | cell number compared with control cultures (A549 cells, 5 μg/ml, 24 hours) | cells undergoing mitosis (A549 cells, 5 μg/ml, 24 hours) | alpha-tubulin antibody staining of the microtubule matrix (A549 cells, 5 μg/ml, 24 hours, seen in some cells)
1 | C=C/C=C\[C@H](C)[C@H](OC(N)=O)[C@@H](C)[C@H](O)[C@@H](C)C/C(C)=C\[C@H](C)[C@@H](O)[C@@H](C)/C=C\[C@@H](O)C[C@@H]1OC(=O)[C@H](C)[C@@H](O)[C@H]1C [discodermolide, reference compound] | abnormal formation of multiple centriolar-radiating microtubules with extensive clusters of associated microtubular “bundles” |  |  |  | 
2 | CC(=O)O[C@H]1C(=O)[C@@]2(C)[C@H]([C@H](OC(=O)c3ccccc3)[C@]3(O)C[C@H](OC(=O)[C@H](O)[C@@H](NC(=O)c4ccccc4)c4ccccc4)C(C)=C1C3(C)C)[C@]1(OC(C)=O)CO[C@@H]1C[C@@H]2O [paclitaxel, reference compound] | abnormal formation of multiple centriolar-radiating microtubules with extensive clusters of associated microtubular “bundles” |  |  |  | 
3 | microsclerodermin F |  | nor was there any microtubule bundling or cells with multiple asters | fewer cells than in control cultures | No cells in the culture were found to be undergoing mitosis | completely disassembled structure with a near uniform distribution throughout the cytoplasm
